Reference: patent US11529328B2, “Formulations for pharmaceutical agents” (The Curators of the University of Missouri, priority 2019, dated 2022)
In brackets after ≈: the same amount, converted by molar mass.

Experiments:
DU-145 = settings: exposure time period of 72; previous study; read-out: reported IC50 of DXT; cited from earlier work
[1] = cited from earlier work
[2] = deionized-water; cited from earlier work
MCF-10A = experiment: MTS cell viability / cytotoxicity on normal MCF-10A cells; assay type: cell-based, human; settings: 1% v/v

Which IC50 (DU-145) does the source give for `CC(=O)O[C@@]12CO[C@@H]1C[C@H](O)[C@@]1(C)C(=O)[C@H](O)C3=C(C)[C@@H](OC(=O)[C@H](O)[C@@H](NC(=O)OC(C)(C)C)c4ccccc4)C[C@@](O)([C@@H](OC(=O)c4ccccc4)[C@H]21)C3(C)C` [native DXT, Docetaxel] here?
The IC50 was 8.2 nM.

And the “log P” value [1]?
The value was 4.1.

And the solubility [2]?
Its solubility is 11.75 µg/mL (≈ 14.5 µM).

For Triton X, which “cytotoxicity of positive control” value (MCF-10A) is on record?
Its value is “strongly cytotoxic”.
